Reference: patent US5639775A, “4-[4'-piperodinyl or 3'-pirrolidinyl] substituted imidazoles as H3 -receptor antagonists and therapeutic uses thereof” (The University of Toledo, priority 1994, dated 1997)
Like-named read-outs stand apart in the source and are kept apart here.

Tests used:
[1] = target: T1, histamine H3 receptor (Rattus norvegicus, UniProt Q9QYN8); assay: inhibition of binding of [3H]-N-alpha-methylhistamine to rat brain membranes; conditions: for IC50: rat brain membranes, 3HNα-methylhistamine as radioligand
T1 construct: from tissue
Method: A series of compounds were prepared and tested for their histamine H3 receptor antagonist activity. The antagonist activity of the compounds was detected by observing inhibition of (^3 H)-N-(alpha)methylhistamine activity on rat brain membranes.
The various compounds were tested for the ability to bind to the histamine H3 receptor. A binding assay in a rat brain membrane preparation, based on inhibition of binding of [^3 H]-N-alpha-methylhistamine using excess unlabeled alpha-methylhistamine to account for nonspecifc binding, was developed.

[2] = system: dogs; conditions: high dose, repeated dose; cited from earlier work
[3] = system: Calcium; assay: NOVASCREEN receptor selectivity assay (channel proteins, Nifedipine reference); assay type: binding; conditions: 10^-5 M
Description: (§1) Bolded values represent inhibition of fifty percent or greater.

[4] = toxicity observed in all testing to date; assay type: in vivo; conditions: even at high doses
[5] = system: Glycine; assay: NOVASCREEN receptor selectivity assay (excitatory amino acids); assay type: binding; conditions: 10^-5 M
Description: as §1

[6] = system: male albino CF-1 mice; assay: behavioral effects: sleep induced by (R)α-methylhistamine in mice; assay type: in vivo
Method: The overall strategy to show central nervous system antagonist activity was to challenge effects of the agonist (R)α-methylhistamine. Therefore, the first objective was to establish a dose response curve for behavioral effects of (R)α-methylhistamine. […] Saline or (R)α-methylhistamine in saline was injected i.p. in a volume≤0.4 ml. […] Animals were scored for the presence (1) or absence (0) of the behavior and the results were reported as the accumulated score for a 30 minute period (maximum score=9).
To assess the effects of antagonists, they were administered with the (R)α-methylhistamine in saline.

[7] = system: H3 receptors in the cortex; assay: blood-brain barrier penetration by ex vivo binding of [3H]-Nα-methylhistamine to cortical homogenate of injected rats; assay type: in vivo, rat
Method: Blood-brain barrier penetration in rats was assessed by an ex vivo binding procedure. Young adult male Long-Evans rats were injected i.p. with saline or H3 antagonists in saline. At various times after injection animals were sacrificed, the cortex was removed, homogenized in 50 mM Na/K-phosphate buffer, pH 7.4, and the binding of 1 nM [^3 H]-N^[…] -methylhistamine was measured using 400 μg protein of the homogenate. Nonspecific binding was accounted for by the inclusion of excess thioperamide in some samples. Under these conditions, the binding was approximately 90% specific.

[8] = system: Glycine; assay: NOVASCREEN receptor selectivity assay (inhibitory amino acids); assay type: binding; conditions: 10^-5 M
Description: as §1

[9] = assay type: binding; conditions: 10^-5 M; w-Conotoxin reference
[10] = target: Kainate; conditions: reference compound; cited from earlier work
[11] = system: rats; conditions: cited from earlier work
[12] = target: Glycine; conditions: read-out: Reference Ki; reference compound; inhibitory; cited from earlier work
[13] = 2, 5, and 10 mg/kg i.p., 15 min after injection

T1 sequence (Q9QYN8 whole entry): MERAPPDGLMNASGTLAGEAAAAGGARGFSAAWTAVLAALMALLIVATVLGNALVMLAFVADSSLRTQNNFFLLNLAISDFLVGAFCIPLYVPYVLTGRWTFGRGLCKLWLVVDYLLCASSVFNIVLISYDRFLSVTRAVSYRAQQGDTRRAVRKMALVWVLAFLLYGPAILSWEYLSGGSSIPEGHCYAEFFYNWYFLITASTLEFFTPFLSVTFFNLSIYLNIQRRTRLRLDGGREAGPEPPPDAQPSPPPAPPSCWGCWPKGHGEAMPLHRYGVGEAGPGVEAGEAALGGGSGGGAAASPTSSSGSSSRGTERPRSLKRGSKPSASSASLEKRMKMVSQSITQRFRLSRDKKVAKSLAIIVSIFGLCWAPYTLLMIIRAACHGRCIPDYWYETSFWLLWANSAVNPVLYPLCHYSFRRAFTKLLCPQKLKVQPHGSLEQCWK

## O=C(C1CCCCC1)N1CCC(c2c[nH]cn2)CC1 [Compound 41]
[1]; Table I first part
  IC50: inactive

## O=C(CC12CC3CC(CC(C3)C1)C2)N1CCC(c2cnc[nH]2)CC1 [Compound 8]
[1]; Table I second part
  IC50: inactive

## C/N=C(\S)NCCSCc1[nH]cnc1C [metiamide]
[2]
  proportion of dogs that died acutely with pulmonary edema and pleural effusion: < 10%

## CC(C)(C)C(=O)N1CCC(c2c[nH]cn2)CC1 [Compound 14]
[1]; Table I second part
  IC50: inactive

## N#CN=C(NC1CCCCC1)N1CCC(c2c[nH]cn2)CC1 [Compound 48]
[1]
  binding to the H3-receptor (in words): ineffective
[1]; Table I first part
  IC50: inactive

## O=C(CCCCC1CCCCC1)N1CCC(c2c[nH]cn2)CC1 [Compound 1, 4-(1-Cyclohexylvaleroyl-4-Piperidyl) 1H-Imidazole]
[3]
  Initial Percent Inhibition (Average; N = 2): 8.1%
[4]
  toxicity observed: no toxicity
[5]
  Initial Percent Inhibition (Average; N = 2): 1.8%
[6]; 25 mg/kg (R)α-methylhistamine
  effect on sleep induced by R(-)-α-methylhistamine: inhibited the soporific effect
[6]; in vivo assays
  effectiveness as an H3-receptor antagonist in vivo: effective as an H3 -receptor antagonist
[7]; 50 and 70 mg/kg i.p., one hour after injection
  penetration of the blood-brain barrier: penetrates the blood-brain barrier
[7]; taking into account the difference in affinity
  penetration of the blood-brain barrier compared with thioperamide: at least as well as thioperamide
[8]
  Initial Percent Inhibition (Average; N = 2): 17.4%
[9]
  Initial Percent Inhibition (Average; N = 2): 1.9%

## C=C(C)[C@H]1CN[C@H](C(=O)O)[C@H]1CC(=O)O [Kainic Acid]
[10]
  Ki: 24.9 nM

## CC(C)(C)C(=O)N1CCC(c2cn(C(=O)C(C)(C)C)cn2)CC1 [Compound 44]
[1]; Table I first part
  IC50: inactive

## N#CN=C(Oc1ccccc1)N1CCC(c2c[nH]cn2)CC1 [Compound 47]
[1]
  binding to the H3-receptor (in words): ineffective

## N#CN=C(Nc1ccc(-c2c[nH]cn2)cc1)NC1CCCCC1 [Compound 50]
[1]
  binding to the H3-receptor (in words): ineffective
[1]; Table I second part
  IC50: inactive

## O=C(c1ccccc1)N1CCC(c2cn(C(=O)c3ccccc3)cn2)CC1 [Compound 43]
[1]; Table I first part
  IC50: inactive

## S=C(NC1CCCCC1)N1CCC(c2cnc[nH]2)CC1 [Thioperamide, reference compound]
[11]
  dose needed in vivo to inhibit histamine release from the brain: relatively high doses are required
[6]; 30 mg/kg (R)α-methylhistamine
  effect on sleep induced by R(-)-α-methylhistamine: inhibit the soporific effect
[6]; in the absence of the α-methylhistamine H3 receptor agonist
  behavior with antagonist alone: very active, exhibiting normal behaviors
[7]; [13]
  binding of [3H]-Nα-methylhistamine to H3 receptors in the cortex: decreased the binding
  penetration of the blood-brain barrier: able to penetrate the blood-brain barrier

## Cn1cnc(C2CCN(C(=O)c3ccccc3)CC2)c1 [Compound 42]
[1]; Table I first part
  IC50: inactive

## O=C(c1ccccc1)N1CCC(c2cn(Cc3ccccc3)cn2)CC1 [Compound 46]
[1]; Table I first part
  IC50: inactive

## O=C(Cc1ccccc1)N1CCC(c2c[nH]cn2)CC1 [Compound 4]
[1]; Table I first part, read-out: IC50
  IC50: 1400 ± 437 nM

## CC(C)(C)OC(=O)N1CCC(c2cn(C(=O)OC(C)(C)C)cn2)CC1 [Compound 45]
[1]; Table I first part
  IC50: inactive

## O=C1C[C@@H]2OCC=C3CN4CC[C@]56c7ccccc7N1[C@H]5[C@H]2[C@H]3C[C@H]46 [Strychinine Nitrate]
[12]
  Ki: 33.5 nM

## O=C(CCCCC1CCCCC1)N1CCC(c2c[nH]cn2)CC1 [compound 2016]
[6]; mice, both drugs administered peripherally
  effect on soporific effect of R(-)-alphamethylhistamine: reverses the soporific effect

## C[C@@H](N)Cc1c[nH]cn1 [(R)α-methylhistamine, reference compound]
[6]; i.p., one hour after injection, also evident at 30 minutes
  effect on sleeping: dose-dependent (range of 15 to 35 mg/kg) increase in sleeping

## O=C(C(C1CCCCC1)C1CCCCC1)N1CCC(c2cnc[nH]2)CC1 [Compound 9]
[1]; Table I second part
  IC50: inactive
